The text below walks through data of patent US12441726B2, “Compounds and uses thereof” (Foghorn Therapeutics Inc., priority 2020, dated 2025).

Assay [1] addresses BRM (Homo sapiens, UniProt P51531). Put plainly: ATPase catalytic activity assay (ADP-Glo), BRM. Conditions: 30 nM BRM, 400 μM ATP; for IC50: BRM ATPase: IC50 (uM).
Assay [2] addresses BRG-1 (Homo sapiens, UniProt P51532). Put plainly: ATPase catalytic activity assay (ADP-Glo), BRG-1. Conditions: for Emax: 1 h, read-out: BRG1 Max % Inhibition, ADP-Glo, 30 nM BRG-1, 400 μM ATP. (In general: In ADP-Glo the light output rises with the ADP produced.)

Usually IC50 stands for the concentration that inhibits the measured activity by half.

The structures appear in SMILES notation. A value given as a limit tells only on which side of the number the result lay.

BRG-1, sequence (P51532 whole entry): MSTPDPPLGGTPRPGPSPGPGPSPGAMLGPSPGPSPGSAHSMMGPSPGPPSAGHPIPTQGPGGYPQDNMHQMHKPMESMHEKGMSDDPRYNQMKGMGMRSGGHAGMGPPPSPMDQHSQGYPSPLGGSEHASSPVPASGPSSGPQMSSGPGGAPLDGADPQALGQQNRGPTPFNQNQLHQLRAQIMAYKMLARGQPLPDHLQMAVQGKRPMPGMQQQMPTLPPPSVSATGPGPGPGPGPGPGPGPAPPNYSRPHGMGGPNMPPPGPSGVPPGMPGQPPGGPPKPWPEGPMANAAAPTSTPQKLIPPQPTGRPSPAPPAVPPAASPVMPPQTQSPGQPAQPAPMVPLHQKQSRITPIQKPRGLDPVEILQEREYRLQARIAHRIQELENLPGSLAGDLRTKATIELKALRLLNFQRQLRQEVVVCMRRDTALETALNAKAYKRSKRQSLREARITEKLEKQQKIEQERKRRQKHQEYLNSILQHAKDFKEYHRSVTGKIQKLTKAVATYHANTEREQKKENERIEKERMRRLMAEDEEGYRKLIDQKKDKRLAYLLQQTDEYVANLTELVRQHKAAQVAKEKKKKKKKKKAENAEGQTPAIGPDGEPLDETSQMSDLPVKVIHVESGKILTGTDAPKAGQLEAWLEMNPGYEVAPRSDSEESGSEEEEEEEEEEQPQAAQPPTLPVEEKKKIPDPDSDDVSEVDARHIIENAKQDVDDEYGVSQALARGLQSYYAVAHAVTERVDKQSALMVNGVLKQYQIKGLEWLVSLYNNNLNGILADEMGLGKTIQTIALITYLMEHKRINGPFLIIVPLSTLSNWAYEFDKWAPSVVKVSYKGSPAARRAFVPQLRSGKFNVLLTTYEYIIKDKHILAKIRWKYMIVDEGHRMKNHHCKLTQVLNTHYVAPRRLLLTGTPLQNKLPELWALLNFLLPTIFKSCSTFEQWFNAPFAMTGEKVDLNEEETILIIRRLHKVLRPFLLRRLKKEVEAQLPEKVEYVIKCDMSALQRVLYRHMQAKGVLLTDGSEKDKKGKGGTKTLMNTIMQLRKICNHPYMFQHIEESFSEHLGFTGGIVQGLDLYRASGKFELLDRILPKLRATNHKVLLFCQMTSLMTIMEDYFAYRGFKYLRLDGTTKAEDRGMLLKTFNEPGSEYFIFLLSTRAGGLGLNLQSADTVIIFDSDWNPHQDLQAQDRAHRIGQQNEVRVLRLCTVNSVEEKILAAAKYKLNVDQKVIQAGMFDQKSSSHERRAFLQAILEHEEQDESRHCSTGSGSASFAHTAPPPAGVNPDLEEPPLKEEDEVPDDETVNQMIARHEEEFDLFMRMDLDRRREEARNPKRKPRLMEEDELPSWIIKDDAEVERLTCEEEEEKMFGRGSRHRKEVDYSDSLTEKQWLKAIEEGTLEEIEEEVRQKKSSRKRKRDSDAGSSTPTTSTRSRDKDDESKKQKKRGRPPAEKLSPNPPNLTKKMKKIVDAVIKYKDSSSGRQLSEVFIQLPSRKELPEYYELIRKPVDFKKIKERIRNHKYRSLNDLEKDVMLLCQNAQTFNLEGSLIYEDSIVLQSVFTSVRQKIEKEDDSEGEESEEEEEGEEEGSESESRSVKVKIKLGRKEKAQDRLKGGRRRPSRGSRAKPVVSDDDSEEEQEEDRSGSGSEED
BRM, sequence (P51531 whole entry): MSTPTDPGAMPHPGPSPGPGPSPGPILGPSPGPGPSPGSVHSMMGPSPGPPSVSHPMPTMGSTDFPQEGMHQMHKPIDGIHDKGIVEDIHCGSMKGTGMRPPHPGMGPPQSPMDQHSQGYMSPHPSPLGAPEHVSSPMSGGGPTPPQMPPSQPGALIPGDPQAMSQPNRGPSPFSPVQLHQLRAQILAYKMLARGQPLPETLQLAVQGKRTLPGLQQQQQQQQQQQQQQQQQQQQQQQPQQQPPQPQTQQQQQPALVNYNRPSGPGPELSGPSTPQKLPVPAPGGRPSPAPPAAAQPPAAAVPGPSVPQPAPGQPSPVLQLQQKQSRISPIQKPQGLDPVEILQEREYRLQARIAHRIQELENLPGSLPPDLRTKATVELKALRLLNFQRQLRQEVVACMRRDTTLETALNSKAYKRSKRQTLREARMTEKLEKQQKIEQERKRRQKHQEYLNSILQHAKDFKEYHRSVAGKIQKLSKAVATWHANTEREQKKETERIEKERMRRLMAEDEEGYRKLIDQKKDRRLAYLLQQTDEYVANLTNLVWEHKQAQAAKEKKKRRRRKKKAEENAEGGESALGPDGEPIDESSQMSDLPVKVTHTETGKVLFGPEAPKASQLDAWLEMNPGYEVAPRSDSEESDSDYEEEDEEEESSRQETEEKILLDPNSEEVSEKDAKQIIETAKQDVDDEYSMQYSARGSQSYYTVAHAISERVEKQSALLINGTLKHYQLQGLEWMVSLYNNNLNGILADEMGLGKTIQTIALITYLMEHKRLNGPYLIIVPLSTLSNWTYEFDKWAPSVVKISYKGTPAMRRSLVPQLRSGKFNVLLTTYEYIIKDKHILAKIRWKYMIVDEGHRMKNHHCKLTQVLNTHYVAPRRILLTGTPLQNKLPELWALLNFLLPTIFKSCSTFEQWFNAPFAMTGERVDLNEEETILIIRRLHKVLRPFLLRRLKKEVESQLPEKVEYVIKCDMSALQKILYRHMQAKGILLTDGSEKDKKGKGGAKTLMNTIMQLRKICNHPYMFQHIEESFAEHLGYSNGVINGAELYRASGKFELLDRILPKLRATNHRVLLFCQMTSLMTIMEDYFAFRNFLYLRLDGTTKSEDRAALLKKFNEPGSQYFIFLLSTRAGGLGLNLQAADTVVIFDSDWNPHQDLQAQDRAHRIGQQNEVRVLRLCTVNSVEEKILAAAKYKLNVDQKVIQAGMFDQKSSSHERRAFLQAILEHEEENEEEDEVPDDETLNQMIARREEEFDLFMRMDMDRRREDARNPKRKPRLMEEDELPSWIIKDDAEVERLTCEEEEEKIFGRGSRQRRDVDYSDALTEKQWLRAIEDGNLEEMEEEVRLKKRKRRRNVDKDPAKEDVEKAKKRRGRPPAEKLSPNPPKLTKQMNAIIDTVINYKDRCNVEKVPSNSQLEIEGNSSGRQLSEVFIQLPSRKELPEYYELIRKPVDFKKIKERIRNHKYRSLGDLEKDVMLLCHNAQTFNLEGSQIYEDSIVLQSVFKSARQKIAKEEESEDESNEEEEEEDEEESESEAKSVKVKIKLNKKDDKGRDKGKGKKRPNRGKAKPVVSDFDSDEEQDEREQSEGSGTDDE

For the molecule `C[C@@]1(C#N)COCc2ccc(C(=O)NCc3cc4nc(-c5ccnc(N6CC[C@@H](F)C6)n5)ccc4cn3)cc21` [Compound 306], in assay [1], the “BRM Max % Inhibition” value was 99% and the IC50 was below 0.1 µM. Further, in assay [2], the IC50 is 100 to 500 nM and the Emax came to 94%.

Take `C[C@@]1(F)COCc2ccc(C(=O)NCc3cc4nc(-c5ccnc(N6CC[C@H]7COC[C@@H]7C6)n5)ccc4cn3)cc21` [Compound 307]: in assay [1], the “BRM Max % Inhibition” value is 98% and the IC50 is below 0.1 µM. Besides, in assay [2], the IC50 lay in the range of 100 to 500 nM and the Emax was 97%.

`C[C@@]1(F)COCc2ccc(C(=O)NCc3cc4nc(-c5ccnc(N6CC[C@@H]7COC[C@H]7C6)n5)ccc4cn3)cc21` [Compound 308]: in assay [1], the “BRM Max % Inhibition” value worked out at 99% and the IC50 was below 0.1 µM. For the same molecule, in assay [2], the IC50 is below 100 nM and the Emax stood at 96%.

As to `C[C@@]1(C#N)COCc2ccc(C(=O)NCc3cc4nc(-c5ccn6ncc(C(F)F)c6n5)ccc4cn3)cc21` [Compound 309], in assay [1], the “BRM Max % Inhibition” value came to 97% and the IC50 is below 0.1 µM. For the same molecule, in assay [2], the IC50 is 100 to 500 nM and the Emax came out at 82%.

For `C[C@@]1(C#N)COCc2ccc(C(=O)NCc3cc4nc(-c5ccnc(N6C[C@H]7C[C@@H]6CO7)n5)ccc4cn3)cc21` [Compound 310], in assay [1], the “BRM Max % Inhibition” value stood at 97% and the concentration for half-maximal inhibition (IC50) is below 0.1 µM. In assay [2], the IC50 lay within 100 to 500 nM and the Emax was 84%.

On to `C[C@@]1(C#N)COCc2ccc(C(=O)NCc3cc4nc(-c5cncc(N6CC[C@H](F)C6)n5)ccc4cn3)cc21` [Compound 311], for which, in assay [1], the “BRM Max % Inhibition” value was 99% and the IC50 is below 0.1 µM. Further, in assay [2], the half-inhibitory concentration (IC50) lay in the range of 100 to 500 nM and the Emax is 95%.

On to `C[C@@]1(C#N)COCc2ccc(C(=O)NCc3cc4nc(N5CCN(C6CC6)C5=O)ccc4cn3)cc21` [Compound 312], for which, in assay [1], the “BRM Max % Inhibition” value is listed as 83% and the IC50 was in the range of 0.1 to 0.5 µM. Further, in assay [2], the IC50 is above 1000 nM and the Emax came out at 46%.

For the molecule `C[C@@]1(C#N)COCc2ccc(C(=O)NCc3cc4nc(N5CCN(C6CCC6)C5=O)ccc4cn3)cc21` [Compound 313], in assay [1], the “BRM Max % Inhibition” value is listed as 92% and the IC50 fell in the range of 0.1 to 0.5 µM. Besides, in assay [2], the IC50 was in the range of 500 to 1000 nM and the Emax came to 72%.

With `C[C@@]1(C#N)COCc2ccc(C(=O)NCc3cc4c(cn3)CCN(c3cncc(N5CCOCC5)n3)C4)cc21` [Compound 314], in assay [1], the “BRM Max % Inhibition” value was determined as 96% and the IC50 is below 0.1 µM. For the same molecule, in assay [2], the IC50 fell in the range of 100 to 500 nM and the Emax was 83%.

As for `C[C@@]1(C#N)COCc2ccc(C(=O)NCc3cc4nc(N5CCCN(C6CC6)C5=O)ccc4cn3)cc21` [Compound 315], in assay [1], the “BRM Max % Inhibition” value is 81% and the IC50 lay within 0.1 to 0.5 µM. In addition, in assay [2], the IC50 is above 1000 nM and the Emax came out at 33%.

In the case of `COCCOCCNC(=O)c1cccc(-c2ccc3cnc(CNC(=O)c4ccc5c(c4)[C@](C)(C#N)COC5)cc3n2)c1` [Compound 316], in assay [1], the “BRM Max % Inhibition” value was determined as 98% and the IC50 was in the range of 0.1 to 0.5 µM. In assay [2], the IC50 is above 1000 nM and the Emax was determined as 92%.

In the case of `CN1CCC(NC(=O)c2cccc(-c3ccc4cnc(CNC(=O)c5ccc6c(c5)[C@](C)(C#N)COC6)cc4n3)c2)CC1` [Compound 317], in assay [1], the “BRM Max % Inhibition” value turned out to be 100% and the IC50 lay within 0.1 to 0.5 µM. Moreover, in assay [2], the IC50 is above 1000 nM and the Emax was determined as 96%.

Regarding `C[C@@]1(F)COCc2ccc(C(=O)NCc3cc4nc(-c5ccc(=O)n(CC(F)F)n5)ccc4cn3)cc21` [Compound 318], in assay [1], the “BRM Max % Inhibition” value amounted to 107% and the IC50 lay within 0.1 to 0.5 µM. Also, in assay [2], the IC50 was 500 to 1000 nM and the Emax is 55%.

For the molecule `C[C@@]1(F)COCc2ccc(C(=O)NCc3cc4nc(-c5cncc(N6CCOCC6)n5)ccc4cn3)cc21` [Compound 319], in assay [1], the “BRM Max % Inhibition” value was found to be 104% and the IC50 is below 0.1 µM. Also, in assay [2], the IC50 fell in the range of 100 to 500 nM and the Emax is 92%.

For the molecule `CC(=O)N1CCOc2c(-c3ccc4cnc(CNC(=O)c5ccc6c(c5)[C@](C)(C#N)COC6)cc4n3)cccc21` [Compound 320], in assay [1], the “BRM Max % Inhibition” value came to 107% and the IC50 lay within 0.1 to 0.5 µM. For the same molecule, in assay [2], the IC50 lay within 500 to 1000 nM and the Emax amounted to 80%.

With `C[C@@]1(C#N)COCc2ccc(C(=O)NCc3cc4nc(-c5ccnc(N6CC7CC7C6)n5)ccc4cn3)cc21` (stereo partly shown) [Compound 321], in assay [1], the “BRM Max % Inhibition” value is listed as 105% and the IC50 is below 0.1 µM. For the same molecule, in assay [2], the IC50 fell in the range of 100 to 500 nM and the Emax amounted to 95%.

On to `C[C@H]1CN(c2nccc(-c3ccc4cnc(CNC(=O)c5ccc6c(c5)[C@](C)(C#N)COC6)cc4n3)n2)CCO1` [Compound 322], for which, in assay [1], the “BRM Max % Inhibition” value is on record as 106% and the IC50 is below 0.1 µM. In assay [2], the IC50 was below 100 nM and the Emax is 97%.

Turning to `COCCNC(=O)c1ccc(-c2ccc3cnc(CNC(=O)c4ccc5c(c4)[C@](C)(C#N)COC5)cc3n2)cc1` [Compound 323], in assay [1], the “BRM Max % Inhibition” value is 108% and the IC50 was 0.1 to 0.5 µM. Moreover, in assay [2], the IC50 was 500 to 1000 nM and the Emax came out at 76%.

With `CNC(=O)c1ccc(-c2ccc3cnc(CNC(=O)c4ccc5c(c4)[C@](C)(C#N)COC5)cc3n2)cc1` [Compound 324], in assay [1], the “BRM Max % Inhibition” value is on record as 105% and the IC50 is 0.1 to 0.5 µM. In addition, in assay [2], the IC50 is 500 to 1000 nM and the Emax was determined as 81%.

For `C[C@@]1(F)COCc2ccc(C(=O)NCc3cc4nc(-c5cncc(C6CC6)n5)ccc4cn3)cc21` [Compound 325], in assay [1], the “BRM Max % Inhibition” value was 101% and the IC50 was below 0.1 µM. Moreover, in assay [2], the IC50 lay in the range of 100 to 500 nM and the Emax turned out to be 90%.

Consider `CN(C)c1nccc(N2CCc3cnc(CNC(=O)c4ccc5c(c4)[C@](C)(C#N)COC5)cc3C2)n1` [Compound 326], for which, in assay [1], the “BRM Max % Inhibition” value turned out to be 97% and the IC50 fell in the range of 0.1 to 0.5 µM. Further, in assay [2], the IC50 was in the range of 500 to 1000 nM and the Emax came out at 70%.

In the case of `C[C@@]1(C#N)COCc2ccc(C(=O)NCc3cc4c(cn3)CCN(c3ccnc(C5CC5)n3)C4)cc21` [Compound 327], in assay [1], the “BRM Max % Inhibition” value is on record as 89% and the IC50 fell in the range of 0.1 to 0.5 µM. Further, in assay [2], the IC50 was above 1000 nM and the Emax is 48%.

For the molecule `C[C@@]1(C#N)COCc2ccc(C(=O)NCc3cc4c(cn3)CCN(c3cncc(C5CC5)n3)C4)cc21` [Compound 328], in assay [1], the “BRM Max % Inhibition” value is 99% and the IC50 was below 0.1 µM. Besides, in assay [2], the IC50 was 500 to 1000 nM and the Emax worked out at 81%.

In the case of `COc1nn(C)cc1-c1ccc2nnc(CNC(=O)c3ccc4c(c3)[C@](C)(C#N)COC4)cc2c1` [Compound 329], in assay [1], the “BRM Max % Inhibition” value came out at 100% and the IC50 was below 0.1 µM. Further, in assay [2], the IC50 fell in the range of 100 to 500 nM and the Emax was determined as 86%.

For `C[C@@]1(C#N)COCc2ccc(C(=O)NCc3cc4c(cn3)CCN(c3ccnc(N5CCOCC5)n3)C4)cc21` [Compound 330], in assay [1], the “BRM Max % Inhibition” value is 93% and the IC50 lay within 0.1 to 0.5 µM. In assay [2], the IC50 fell in the range of 500 to 1000 nM and the Emax came out at 64%.

With `C[C@@]1(C#N)COCc2ccc(C(=O)NCc3cc4c(cn3)CCN(c3ccnc(N5CCCC5)n3)C4)cc21` [Compound 331], in assay [1], the “BRM Max % Inhibition” value is listed as 97% and the IC50 was in the range of 0.1 to 0.5 µM. In addition, in assay [2], the IC50 is 500 to 1000 nM and the Emax was found to be 73%.

On to `C[C@@]1(C#N)COCc2ccc(C(=O)NCc3cc4c(cn3)CCN(c3ccnc(N5CCC5)n3)C4)cc21` [Compound 332], for which, in assay [1], the “BRM Max % Inhibition” value worked out at 96% and the IC50 was 0.1 to 0.5 µM. For the same molecule, in assay [2], the half-inhibitory concentration (IC50) was 500 to 1000 nM and the Emax came out at 67%.

Regarding `COc1nn(C)cc1-c1ccc2cnc(CNC(=O)c3cc(F)c4c(c3)[C@](C)(F)COC4)cc2n1` [Compound 333], in assay [1], the “BRM Max % Inhibition” value stood at 100% and the IC50 is below 0.1 µM. Moreover, in assay [2], the IC50 fell in the range of 500 to 1000 nM and the Emax was determined as 79%.

With `COc1nn(C)cc1-c1ccc2cnc(CNC(=O)c3cnc4c(c3)[C@](C)(F)COC4)cc2n1` [Compound 334], in assay [1], the “BRM Max % Inhibition” value is listed as 96% and the IC50 lay in the range of 0.1 to 0.5 µM. Further, in assay [2], the IC50 was in the range of 500 to 1000 nM and the Emax is 61%.

On to `C[C@@]1(C#N)COCc2ccc(C(=O)NCc3cc4cc(-c5nccc(N6CCC6)n5)ccc4nn3)cc21` [Compound 335], for which, in assay [1], the “BRM Max % Inhibition” value is 101% and the IC50 was below 0.1 µM. In addition, in assay [2], the IC50 was 100 to 500 nM and the Emax turned out to be 84%.

On to `C[C@@]1(C#N)COCc2ccc(C(=O)NCc3cc4cc(-c5ccnc(N6CCC6)n5)ccc4nn3)cc21` [Compound 336], for which, in assay [1], the “BRM Max % Inhibition” value is listed as 99% and the IC50 was below 0.1 µM. In addition, in assay [2], the IC50 fell in the range of 100 to 500 nM and the Emax amounted to 92%.

`C[C@@]1(C#N)COCc2ccc(C(=O)NCc3cc4cc(-c5ccnc(C6CC6)n5)cnc4cn3)cc21` [Compound 337]: in assay [1], the “BRM Max % Inhibition” value was 99% and the IC50 was in the range of 0.1 to 0.5 µM. Also, in assay [2], the IC50 was in the range of 500 to 1000 nM and the Emax stood at 63%.

As for `COc1nn(C)cc1-c1cnc2cnc(CNC(=O)c3ccc4c(c3)[C@](C)(F)COC4)cc2c1` [Compound 338], in assay [1], the “BRM Max % Inhibition” value came to 97% and the IC50 was 0.1 to 0.5 µM. Moreover, in assay [2], the IC50 fell in the range of 500 to 1000 nM and the Emax came to 56%.

On to `CO[C@H]1CCN(c2nccc(-c3ccc4cnc(CNC(=O)c5ccc6c(c5)[C@](C)(C#N)COC6)cc4n3)n2)C1` [Compound 339], for which, in assay [1], the “BRM Max % Inhibition” value worked out at 100% and the IC50 is below 0.1 µM. In addition, in assay [2], the IC50 was in the range of 100 to 500 nM and the Emax amounted to 95%.
